The results in this text go back to US10829520B2, “Beta-hairpin peptidomimetics” (POLYPHOR AG, priority 2015, dated 2020).

Where a SMILES comes first, the peptide text is derived from it. Bridges are numbered along the chain shown (N, C = ends). [ ]: non-standard residue; d: D form. Tle = CC(C)(C)[C@H](N)C(=O)O; Nle = CCCC[C@H](N)C(=O)O; Orn = NCCC[C@H](N)C(=O)O; Dab = NCC[C@H](N)C(=O)O; Dap = NC[C@H](N)C(=O)O Some results are limits rather than exact numbers.

Common to all, as to type: cell-based
Series [1] relates to Acinetobacter baumannii 872842. Conditions: 872842.
Series [2] has as its system Acinetobacter baumannii DSM 30008. Conditions: DSM 30008. A digest of the protocol: (§1)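 Minimal inhibitory concentrations were recorded in μg/mL after the strains grew 18-20 hours at 35° C with two-fold serial peptide dilutions. The medium was Mueller-Hinton II (cation-adjusted) with 0.002% Polysorbate 80, and the inoculum was about 10^6 CFU/mL.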
The subject of the next series is Escherichia coli 926415. The note with it: 926415.
The test system of series [3] is Escherichia coli ATCC 25922. Conditions: ATCC 25922. The procedure, abridged:
as §1

Series [4] has as its system Klebsiella pneumoniae 968733. Conditions: 968733.
Series [5] concerns Klebsiella pneumoniae SSI #3010. The note with it: SSI #3010. The procedure, abridged:
as §1

Series [6] relates to Pseudomonas aeruginosa ATCC 27853. Conditions: ATCC 27853. A digest of the protocol: as §1
In series [7] the test system is human red blood cells (hRBC). The series can be described thus: Hemolysis of human red blood cells. The note with it: red cells of human, 1 h, 100 μg/mL. A digest of the protocol:
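hRBC washed 3× PBS; 20% v/v, ~0.9×10^9 cells/mL final. Peptide 100 μg/mL, 1 h, 37° C., 300 rpm. Spin, supernatant diluted 8×, OD540. 0% = PBS + 0.001% acetic acid; 100% = 2.5% Triton X-100. % hemolysis = OD540 peptide/OD540 full lysis × 100.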

Consider `CCCC[C@@H]1NC(=O)[C@@H]2CCCN2C(=O)[C@H]2CCCN2C(=O)[C@H](CO)NC(=O)[C@H](C)NC(=O)[C@H](C(C)(C)C)NC(=O)[C@@H](NC(=O)[C@H](Cc2c[nH]c3ccccc23)NC(=O)[C@H](CCN)NC(C)=O)CSSC[C@@H](C(=O)N[C@@H](CCCN)C(=O)N[C@H](C(=O)N[C@@H](CCN)C(=O)N[C@H]2CCNC(=O)[C@H]([C@@H](C)O)NC(=O)[C@H](CCN)NC(=O)[C@H](CCN)NC(=O)[C@H](CC(C)C)NC(=O)[C@@H](Cc3ccccc3)NC(=O)[C@H](CCN)NC2=O)[C@@H](C)O)NC(=O)[C@H](Cc2ccc(O)cc2)NC(=O)[C@H](CO)NC1=O` [Ex. 36] (Ac-[Dab]WC[Tle]AS[dP]P[Nle]SYC[Orn]T[Dab][Dab][Dab][dF]L[Dab][Dab]T; disulfide 3-12; lactam 16-C), for which the “Acinetobacter baumannii 872842 MIC” value in series [1] is 0.5 µg/mL. Also, in series [2], the “Acinetobacter baumannii DSM 30008 MIC” value was determined as 0.25 µg/mL. The “Escherichia coli 926415 MIC” value in the series on Escherichia coli 926415 stood at 0.25 µg/mL. Further, the “Escherichia coli ATCC 25922 MIC” value in series [3] amounted to 0.25 µg/mL. Besides, the “Klebsiella pneumoniae 968733 MIC” value in series [4] is 0.5 µg/mL. Further, in series [5], the “Klebsiella pneumoniae SSI #3010 MIC” value amounted to 0.25 µg/mL. For the same compound, the “Pseudomonas aeruginosa ATCC 27853 MIC” value in series [6] was determined as 0.5 µg/mL. The “Hemolysis at 100 μg/mL” value in series [7] is on record as less than 1%.

Consider `CCCC[C@@H]1NC(=O)[C@@H]2CCCN2C(=O)[C@H]2CCCN2C(=O)[C@H](CO)NC(=O)[C@H](C)NC(=O)[C@H](C(C)(C)C)NC(=O)[C@@H](NC(=O)[C@H](Cc2c[nH]c3ccccc23)NC(=O)[C@@H](N)CN)CSSC[C@@H](C(=O)N[C@@H](CCN)C(=O)N[C@H](C(=O)N[C@@H](CCN)C(=O)N[C@H]2CCNC(=O)[C@H]([C@@H](C)O)NC(=O)[C@H](CCN)NC(=O)[C@H](CCN)NC(=O)[C@H](CC(C)C)NC(=O)[C@@H](Cc3ccccc3)NC(=O)[C@H](CCN)NC2=O)[C@@H](C)O)NC(=O)[C@H](Cc2ccc(O)cc2)NC(=O)[C@H](CO)NC1=O` [Ex. 37] (H-[Dap]WC[Tle]AS[dP]P[Nle]SYC[Dab]T[Dab][Dab][Dab][dF]L[Dab][Dab]T; disulfide 3-12; lactam 16-C), for which, in series [1], the “Acinetobacter baumannii 872842 MIC” value was 0.5 µg/mL. The “Acinetobacter baumannii DSM 30008 MIC” value in series [2] worked out at 0.125 µg/mL. Besides, the “Escherichia coli 926415 MIC” value in the series with Escherichia coli 926415 amounted to 0.5 µg/mL. Besides, in series [3], the “Escherichia coli ATCC 25922 MIC” value amounted to 0.125 µg/mL. For the same compound, the “Klebsiella pneumoniae 968733 MIC” value in series [4] worked out at 2 µg/mL. In series [5], the “Klebsiella pneumoniae SSI #3010 MIC” value is 0.125 µg/mL. In addition, the “Pseudomonas aeruginosa ATCC 27853 MIC” value in series [6] was 0.5 µg/mL. For the same compound, the “Hemolysis at 100 μg/mL” value in series [7] came out at 2%.

On to `CCCC[C@@H]1NC(=O)[C@@H]2CCCN2C(=O)[C@H]2CCCN2C(=O)[C@H](CO)NC(=O)[C@H](C)NC(=O)[C@H](C(C)(C)C)NC(=O)[C@@H](NC(=O)[C@H](Cc2c[nH]c3ccccc23)NC(=O)[C@@H](N)CCCN)CSSC[C@@H](C(=O)N[C@@H](CCN)C(=O)N[C@H](C(=O)N[C@@H](CCN)C(=O)N[C@H]2CCNC(=O)[C@H]([C@@H](C)O)NC(=O)[C@H](CCN)NC(=O)[C@H](CCN)NC(=O)[C@H](CC(C)C)NC(=O)[C@@H](Cc3ccccc3)NC(=O)[C@H](CCN)NC2=O)[C@@H](C)O)NC(=O)[C@H](Cc2ccc(O)cc2)NC(=O)[C@H](CO)NC1=O` [Ex. 38] (H-[Orn]WC[Tle]AS[dP]P[Nle]SYC[Dab]T[Dab][Dab][Dab][dF]L[Dab][Dab]T; disulfide 3-12; lactam 16-C), for which the “Acinetobacter baumannii 872842 MIC” value in series [1] was 0.5 µg/mL. Further, in series [2], the “Acinetobacter baumannii DSM 30008 MIC” value turned out to be 0.5 µg/mL. Besides, in the series with Escherichia coli 926415, the “Escherichia coli 926415 MIC” value is 0.125 µg/mL. The “Escherichia coli ATCC 25922 MIC” value in series [3] was found to be 0.25 µg/mL. For the same compound, in series [4], the “Klebsiella pneumoniae 968733 MIC” value was found to be 2 µg/mL. For the same compound, in series [5], the “Klebsiella pneumoniae SSI #3010 MIC” value worked out at 0.25 µg/mL. The “Pseudomonas aeruginosa ATCC 27853 MIC” value in series [6] came to 0.25 µg/mL. Further, in series [7], the “Hemolysis at 100 μg/mL” value came out at 1%.

As to `CCCC[C@@H]1NC(=O)[C@@H]2CCCN2C(=O)[C@H]2CCCN2C(=O)[C@H](CO)NC(=O)[C@H](C)NC(=O)[C@H](C(C)(C)C)NC(=O)[C@@H](NC(=O)[C@H](Cc2c[nH]c3ccccc23)NC(=O)[C@@H](N)CCCNC(=N)N)CSSC[C@@H](C(=O)N[C@@H](CCN)C(=O)N[C@H](C(=O)N[C@@H](CCN)C(=O)N[C@H]2CCNC(=O)[C@H]([C@@H](C)O)NC(=O)[C@H](CCN)NC(=O)[C@H](CCN)NC(=O)[C@H](CC(C)C)NC(=O)[C@@H](Cc3ccccc3)NC(=O)[C@H](CCN)NC2=O)[C@@H](C)O)NC(=O)[C@H](Cc2ccc(O)cc2)NC(=O)[C@H](CO)NC1=O` [Ex. 39] (H-RWC[Tle]AS[dP]P[Nle]SYC[Dab]T[Dab][Dab][Dab][dF]L[Dab][Dab]T; disulfide 3-12; lactam 16-C), the “Acinetobacter baumannii 872842 MIC” value in series [1] is 0.5 µg/mL. In addition, in series [2], the “Acinetobacter baumannii DSM 30008 MIC” value amounted to 0.25 µg/mL. In the series with Escherichia coli 926415, the “Escherichia coli 926415 MIC” value worked out at 0.25 µg/mL. In addition, the “Escherichia coli ATCC 25922 MIC” value in series [3] amounted to 0.25 µg/mL. Further, in series [4], the “Klebsiella pneumoniae 968733 MIC” value stood at 2 µg/mL. For the same compound, the “Klebsiella pneumoniae SSI #3010 MIC” value in series [5] was 0.125 µg/mL. Besides, in series [6], the “Pseudomonas aeruginosa ATCC 27853 MIC” value is 0.25 µg/mL. Moreover, the “Hemolysis at 100 μg/mL” value in series [7] amounted to 4%.

As to `CCCC[C@@H]1NC(=O)[C@@H]2CCCN2C(=O)[C@H]2CCCN2C(=O)[C@H](CO)NC(=O)[C@H](C)NC(=O)[C@H](C(C)(C)C)NC(=O)[C@@H](NC(=O)[C@H](Cc2c[nH]c3ccccc23)NC(=O)[C@@H](N)CCC(=O)O)CSSC[C@@H](C(=O)N[C@@H](CCN)C(=O)N[C@H](C(=O)N[C@@H](CCN)C(=O)N[C@H]2CCNC(=O)[C@H]([C@@H](C)O)NC(=O)[C@H](CCN)NC(=O)[C@H](CCN)NC(=O)[C@H](CC(C)C)NC(=O)[C@@H](Cc3ccccc3)NC(=O)[C@H](CCN)NC2=O)[C@@H](C)O)NC(=O)[C@H](Cc2ccc(O)cc2)NC(=O)[C@H](CO)NC1=O` [Ex. 40] (H-EWC[Tle]AS[dP]P[Nle]SYC[Dab]T[Dab][Dab][Dab][dF]L[Dab][Dab]T; disulfide 3-12; lactam 16-C), the “Acinetobacter baumannii 872842 MIC” value in series [1] was 0.125 µg/mL. Besides, the “Acinetobacter baumannii DSM 30008 MIC” value in series [2] was found to be 0.25 µg/mL. Moreover, in the series on Escherichia coli 926415, the “Escherichia coli 926415 MIC” value came out at 0.5 µg/mL. In addition, in series [3], the “Escherichia coli ATCC 25922 MIC” value is 0.125 µg/mL. Also, the “Klebsiella pneumoniae 968733 MIC” value in series [4] was determined as 4 µg/mL. In addition, in series [5], the “Klebsiella pneumoniae SSI #3010 MIC” value turned out to be 0.25 µg/mL. Further, the “Pseudomonas aeruginosa ATCC 27853 MIC” value in series [6] stood at 0.5 µg/mL. The “Hemolysis at 100 μg/mL” value in series [7] came out at 2%.

For the compound `CCCC[C@@H]1NC(=O)[C@@H]2CCCN2C(=O)[C@H]2CCCN2C(=O)[C@H](CO)NC(=O)[C@H](C)NC(=O)[C@H](C(C)(C)C)NC(=O)[C@@H](NC(=O)[C@H](Cc2c[nH]c3ccccc23)NC(=O)[C@H](C)NC(C)=O)CSSC[C@@H](C(=O)N[C@@H](CCN)C(=O)N[C@H](C(=O)N[C@@H](CCN)C(=O)N[C@H]2CCNC(=O)[C@H]([C@@H](C)O)NC(=O)[C@H](CCN)NC(=O)[C@H](CCN)NC(=O)[C@H](CC(C)C)NC(=O)[C@@H](Cc3ccccc3)NC(=O)[C@H](CCN)NC2=O)[C@@H](C)O)NC(=O)[C@H](Cc2ccc(O)cc2)NC(=O)[C@H](CO)NC1=O` [Ex. 41] (Ac-AWC[Tle]AS[dP]P[Nle]SYC[Dab]T[Dab][Dab][Dab][dF]L[Dab][Dab]T; disulfide 3-12; lactam 16-C), the “Acinetobacter baumannii 872842 MIC” value in series [1] came out at 0.5 µg/mL. Besides, the “Acinetobacter baumannii DSM 30008 MIC” value in series [2] is 0.5 µg/mL. In the series on Escherichia coli 926415, the “Escherichia coli 926415 MIC” value was found to be 0.5 µg/mL. Moreover, the “Escherichia coli ATCC 25922 MIC” value in series [3] was 2 µg/mL. For the same compound, the “Klebsiella pneumoniae 968733 MIC” value in series [4] turned out to be 1 µg/mL. In addition, the “Klebsiella pneumoniae SSI #3010 MIC” value in series [5] is 0.25 µg/mL. The “Pseudomonas aeruginosa ATCC 27853 MIC” value in series [6] was determined as 0.5 µg/mL. For the same compound, the “Hemolysis at 100 μg/mL” value in series [7] is less than 1%.

As for `CCCC[C@@H]1NC(=O)[C@@H]2CCCN2C(=O)[C@H]2CCCN2C(=O)[C@H](CO)NC(=O)[C@H](C)NC(=O)[C@H](C(C)(C)C)NC(=O)[C@@H](NC(=O)[C@H](Cc2c[nH]c3ccccc23)NC(=O)[C@@H](N)CCN)CSSC[C@@H](C(=O)N[C@@H](CCN)C(=O)N[C@H](C(=O)N[C@@H](CCN)C(=O)N[C@H]2CCNC(=O)[C@H]([C@@H](C)O)NC(=O)[C@H](CCN)NC(=O)[C@H](CCN)NC(=O)[C@H](CC(C)C)NC(=O)[C@@H](Cc3ccccc3)NC(=O)[C@H](CCN)NC2=O)[C@@H](C)O)NC(=O)[C@H](Cc2ccc(O)cc2)NC(=O)[C@H](CO)NC1=O` [Ex. 42] (H-[Dab]WC[Tle]AS[dP]P[Nle]SYC[Dab]T[Dab][Dab][Dab][dF]L[Dab][Dab]T; disulfide 3-12; lactam 16-C), the “Acinetobacter baumannii 872842 MIC” value in series [1] worked out at 0.25 µg/mL. In series [2], the “Acinetobacter baumannii DSM 30008 MIC” value was 0.25 µg/mL. Further, in the series on Escherichia coli 926415, the “Escherichia coli 926415 MIC” value was 0.25 µg/mL. The “Escherichia coli ATCC 25922 MIC” value in series [3] was found to be 0.125 µg/mL. In series [4], the “Klebsiella pneumoniae 968733 MIC” value came to 2 µg/mL. Also, the “Klebsiella pneumoniae SSI #3010 MIC” value in series [5] came out at 0.25 µg/mL. Besides, the “Pseudomonas aeruginosa ATCC 27853 MIC” value in series [6] was 0.25 µg/mL. Also, the “Hemolysis at 100 μg/mL” value in series [7] is recorded as less than 1%.
